Data on 9 compounds can be found in PubChem BioAssay (NCI).

Values joined by “and” are separate entries in the source; they are usually repeats but may differ in a detail not shown here. Equal entries are not always repeated.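 Test compounds were applied to cells in 96-well plates for 48 hours at 5 doses. GI50 = concentration required for 50% inhibition of growth. TGI: concentration producing complete growth inhibition.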

Test systems include K-562 leukemia; SNB-19 CNS; MDA-MB-435; SNB-75 CNS; MOLT-4 leukemia; HS 578T breast; SF-268 CNS; ACHN renal; NCI-H226 lung; HCC-2998 colon.
What all share (test): NCI tumour cell line growth inhibition, 48 h

In the case of `O=C1C(Br)=C(c2ccccc2)C(c2ccccc2)=C1c1ccccc1`, the TGI in the test with K-562 leukemia worked out at 9.93 µM; in the test with SNB-19 CNS, 24.2 µM; in the test on MDA-MB-435 it was 12.5 µM; in the test on SNB-75 CNS, 12.9 µM; in the test with MOLT-4 leukemia it was 3.74 µM; with HS 578T breast, 40.5 µM. Besides, the TGI with SF-268 CNS is 7.52 µM; in the test on ACHN renal it was 6.51 µM; in the test with NCI-H226 lung, 21.8 µM; in the test on HCC-2998 colon it was 15.9 µM.

For the compound `COc1ccc(/C(Cl)=C(\C=O)c2cc(OC)c(OC)c(OC)c2)cc1OC`, the TGI in the test on K-562 leukemia was more than 100 µM; in the test with SNB-19 CNS, more than 100 µM; with MDA-MB-435 it was more than 100 µM; in the test with SNB-75 CNS, more than 28.1 µM; in the test with MOLT-4 leukemia, more than 100 µM; with HS 578T breast, more than 100 µM. Moreover, the TGI is more than 100 µM with SF-268 CNS, more than 100 µM with ACHN renal, 70.6 µM in the test on NCI-H226 lung and more than 100 µM in the test with HCC-2998 colon.

With `CCOC(=O)CCc1c(C)c2ccc(O)cc2oc1=O`, the TGI with K-562 leukemia, in the test on SNB-19 CNS, in the test on MDA-MB-435, with SNB-75 CNS, with MOLT-4 leukemia and in the test with HS 578T breast was more than 100 µM in each case. Also, the TGI with SF-268 CNS, in the test on ACHN renal, with NCI-H226 lung and in the test with HCC-2998 colon was more than 100 µM in each case.

For the compound `CCSc1nc(=S)[nH]c2[nH]ncc12`, the GI50 in the test with K-562 leukemia was more than 100 µM; with SNB-19 CNS, more than 100 µM; in the test with MDA-MB-435, 63.1 µM; in the test on SNB-75 CNS, more than 100 µM; with MOLT-4 leukemia it was more than 100 µM; in the test with HS 578T breast it was 26 µM. Also, the GI50 with SF-268 CNS is 51.9 µM; in the test on ACHN renal, 93.6 µM; with NCI-H226 lung, 70.6 µM; with HCC-2998 colon, 59.1 µM. In addition, the TGI in the test with K-562 leukemia was more than 100 µM; with SNB-19 CNS, more than 100 µM; in the test on MDA-MB-435 it was more than 100 µM; in the test with SNB-75 CNS, more than 100 µM; in the test on MOLT-4 leukemia, more than 100 µM; in the test with HS 578T breast it was 60.8 µM. The TGI with SF-268 CNS, in the test on ACHN renal, in the test with NCI-H226 lung and with HCC-2998 colon was more than 100 µM throughout.

With `CC1=Cc2cc3[n-]c(cc4nc(cc5[n-]c(cc1n2)c(C)c5CCC(=O)O)C(CCC(=O)O)=C4C)cc3C.[Cu+2]`, the GI50 with K-562 leukemia is > 1 µM and 13.6 µM; with SNB-19 CNS it was > 1 µM and 11.9 µM; in the test with MDA-MB-435, 55.1 µM; in the test with SNB-75 CNS it was > 1 µM and 8.39 µM; in the test on MOLT-4 leukemia, > 1 µM and 46.3 µM; with HS 578T breast, 38.7 µM. The GI50 in the test with SF-268 CNS was 10.8 µM and > 1 µM; in the test on ACHN renal, > 1 µM and 38.8 µM; with NCI-H226 lung it was > 1 µM and 62 µM; in the test on HCC-2998 colon, more than 100 µM. In addition, the TGI with K-562 leukemia was more than 60.6 µM; in the test on SNB-19 CNS, > 1 µM and 32.9 µM; in the test with MDA-MB-435 it was more than 100 µM; with SNB-75 CNS it was > 1 µM and 18.7 µM; with MOLT-4 leukemia, more than 88.7 µM; in the test with HS 578T breast, more than 100 µM. Moreover, the TGI in the test on SF-268 CNS was 36.1 µM and > 1 µM; in the test on ACHN renal, more than 100 µM; in the test on NCI-H226 lung it was more than 87.2 µM; with HCC-2998 colon it was more than 100 µM.

Take `Cc1cc(Nc2nc(N3CCOCC3)nc3ccccc23)n[nH]1`: the GI50 with K-562 leukemia is 5.14 µM; in the test on SNB-19 CNS, 26 µM; in the test on MDA-MB-435, 4.03 µM; in the test on SNB-75 CNS, 1.55 µM; with MOLT-4 leukemia, 15 µM; with HS 578T breast, 1.44 µM. In addition, the GI50 with SF-268 CNS is 6.21 µM; with ACHN renal it was 2.03 µM; with NCI-H226 lung, 4.13 µM; in the test with HCC-2998 colon, 24.8 µM. Also, the TGI is more than 100 µM in the test on K-562 leukemia; more than 100 µM in the test with SNB-19 CNS; more than 100 µM in the test with MDA-MB-435; 7.49 µM in the test with SNB-75 CNS; 77.9 µM with MOLT-4 leukemia; 4.78 µM with HS 578T breast. In addition, the TGI is 35.2 µM in the test on SF-268 CNS, 18.5 µM with ACHN renal, 45.2 µM in the test on NCI-H226 lung and more than 100 µM in the test on HCC-2998 colon.

For the compound `Cc1cc(-c2cc(C)c(O)c(C(C)(C)C)c2)cc(C(C)(C)C)c1O`, the TGI in the test with K-562 leukemia was 25.4 µM and 37.5 µM; with SNB-19 CNS it was 27.7 µM and 26.7 µM; with MDA-MB-435, 26.4 µM and 28 µM; with SNB-75 CNS, 25.4 µM and 27 µM; with MOLT-4 leukemia, 19.4 µM and 21.5 µM; in the test with HS 578T breast it was 27.1 µM and 32.7 µM. In addition, the TGI in the test on SF-268 CNS was 23.9 µM and 29 µM; in the test on ACHN renal, 22.4 µM and 29.1 µM; in the test on NCI-H226 lung, 22.6 µM and 35.9 µM; in the test with HCC-2998 colon, 15.4 µM and 18.7 µM.

Take `COc1cc(C(=O)O)ccc1NC(=O)[C@@H]1N[C@@H](CC(C)(C)C)[C@](C#N)(c2ccc(Cl)cc2F)[C@H]1c1cccc(Cl)c1F`: the GI50 in the test on K-562 leukemia is 4.15 µM; in the test on SNB-19 CNS it was 5.6 µM; in the test with MDA-MB-435, 2.82 µM; in the test with SNB-75 CNS it was 3.35 µM; with MOLT-4 leukemia it was 0.083 µM; in the test with HS 578T breast, 3.9 µM. Also, the GI50 was 4.62 µM in the test with SF-268 CNS, 0.0496 µM with ACHN renal, 0.0941 µM in the test on NCI-H226 lung and 4.62 µM with HCC-2998 colon. The TGI was more than 100 µM in the test on K-562 leukemia; 31.2 µM in the test with SNB-19 CNS; 13.1 µM with MDA-MB-435; 20.9 µM in the test with SNB-75 CNS; 2.07 µM in the test with MOLT-4 leukemia; 15.8 µM in the test with HS 578T breast. The TGI with SF-268 CNS stood at 30.5 µM; in the test on ACHN renal, 6.82 µM; in the test with NCI-H226 lung, 1.71 µM; with HCC-2998 colon, 13.3 µM.

`Cc1c(N(C(=O)c2cc(-c3cc(Cl)ccc3C(=O)N3Cc4ccccc4C[C@H]3CN3CCOCC3)n(C)c2C)c2ccc(O)cc2)cc(C#N)n1C`: the GI50 in the test with K-562 leukemia was 10.8 µM; in the test on SNB-19 CNS, 13.8 µM; in the test on MDA-MB-435, 16.5 µM; with SNB-75 CNS it was 9.79 µM; in the test on MOLT-4 leukemia, 2.98 µM; in the test with HS 578T breast, 19 µM. For the same compound, the GI50 in the test on SF-268 CNS was 20.5 µM; in the test on ACHN renal, 23.6 µM; in the test on NCI-H226 lung it was 14.1 µM; in the test on HCC-2998 colon it was 15.1 µM. The TGI is more than 100 µM in the test with K-562 leukemia; more than 100 µM in the test with SNB-19 CNS; 40.7 µM with MDA-MB-435; 30.9 µM in the test with SNB-75 CNS; more than 100 µM in the test on MOLT-4 leukemia; 75.3 µM with HS 578T breast. Besides, the TGI with SF-268 CNS is more than 100 µM; in the test with ACHN renal, more than 100 µM; in the test with NCI-H226 lung, 44.4 µM; with HCC-2998 colon it was 44.9 µM.
